# Results as given in publication PMC3675020, “Repositioning of Verrucosidin, a Purported Inhibitor of Chaperone Protein GRP78, as an Inhibitor of Mitochondrial Electron Transport Chain Complex I” (PLoS ONE, 2013).
# Target: T1, complex I (NADH dehydrogenase) (Mus musculus, UniProt P03888+Q91WD5+Q91YT0+Q9DC70)
# T1 construct: gene Ndufs2; native respiratory complex in intact isolated mouse liver mitochondria; with NADH dehydrogenase [ubiquinone] flavoprotein 2, mitochondrial; NADH-ubiquinone oxidoreductase 75 kDa subunit, mitochondrial; NADH dehydrogenase [ubiquinone] iron-sulfur protein 3, mitochondrial; NADH dehydrogenase [ubiquinone] iron-sulfur protein 8, mitochondrial; NADH-ubiquinone oxidoreductase chain 2; NADH-ubiquinone oxidoreductase chain 3; NADH-ubiquinone oxidoreductase chain 4; NADH-ubiquinone oxidoreductase chain 4L; NADH-ubiquinone oxidoreductase chain 5; NADH-ubiquinone oxidoreductase chain 6
# Experiment: NADH:DCIP reduction, absorbance […] nm
# Format: biochemical
# Settings: isolated mouse liver mitochondria; DCIP as artificial electron acceptor, glycylglycine pH 8.5; turnover only
structure (smiles),measurement,value
NC(=O)C1=CN([C@@H]2O[C@H](COP(=O)(O)OP(=O)(O)OC[C@H]3O[C@@H](n4cnc5c(N)ncnc54)[C@H](O)[C@@H]3O)[C@@H](O)[C@H]2O)C=CC1 [NADH],"NADH:DCIP reduction, absorbance 600 nm",artificial electron acceptor dichlorophenolindophenol (DCIP) in the presence of NADH
